Assay results published in patent US7642245B2, “Antibacterial compounds having a (pyrrole carboxamide)-(benzamide)-(imidazole carboxamide) motif” (Oscient Pharmaceuticals Corporation, priority 2002, dated 2010).

Legend:
[1] = tested on: C. albicans ATCC 38247; experiment: MIC, antifungal assay; type: cell-based, Candida albicans; conditions: F = C. albicans ATCC 38247
From the text: (§1) In vitro biological activity data were collected for a variety of microorganisms, including Staphylococcus aureus (ATCC 27660, a methicillin resistant strain (MRSA); ATCC 13709, a methicillin sensitive strain (MSSA)), Enterococcus faecalis (ATCC 29212), Bacillus cereus (ATCC 11778), Streptococcus pneumoniae (ATCC 49619), Candida albicans (ATCC 38247), Escherichia coli (ATCC 25922), and Moraxella (now Branhamella) catarrhalis (ATCC 25238).
(§2) The minimal inhibition concentration (MIC) of these compounds was determined using the National Committee for Clinical Laboratory Standards (NCCLS) broth microdilution assay in microtiter plates, as set forth in: (1) the guidelines of the National Committee for Clinical Laboratory Standards (NCCLS) Document M7-A4 (NCCLS, 1997); (2) the guidelines of the National Committee for Clinical Laboratory Standards (NCCLS) Document M11-A4 (NCCLS, 1997); and (3) the guidelines and reference method of the National Committee for Clinical Laboratory Standards (NCCLS) Document M27-T (NCCLS, 1995). For antifungal assays, the method recommended in Murray, P R., 1995 Manual of Clinical Microbiology (ASM Press, Washington, DC.), was employed.

[2] = tested on: E. faecalis ATCC 29212; experiment: MIC, NCCLS broth microdilution; type: cell-based, Enterococcus faecalis; conditions: C = E. faecalis ATCC 29212
From the text: as §1, §2

[3] = tested on: B. cereus ATCC 11778; experiment: MIC, NCCLS broth microdilution; type: cell-based, Bacillus cereus; conditions: D = B. cereus ATCC 11778
From the text: as §1, §2

[4] = tested on: S. aureus ATCC 13709; experiment: MIC, NCCLS broth microdilution; type: cell-based, Staphylococcus aureus; conditions: A = S. aureus ATCC 13709 (MSSA)
From the text: as §1, §2

[5] = tested on: S. aureus ATCC 27660; experiment: MIC, NCCLS broth microdilution; type: cell-based, Staphylococcus aureus; conditions: B = S. aureus ATCC 27660 (MRSA)
From the text: as §1, §2

[6] = tested on: E. coli ATCC 25922; experiment: MIC, NCCLS broth microdilution; type: cell-based, Escherichia coli; conditions: G = E. coli ATCC 25922
From the text: as §1, §2

[7] = tested on: M. catarrhalis (ATCC 25238); experiment: MIC, NCCLS broth microdilution; type: cell-based, Moraxella (now Branhamella) catarrhalis; conditions: H = M. catarrhalis (ATCC 25238)
From the text: as §1, §2

[8] = tested on: S. pneumoniae ATCC 49619; experiment: MIC, NCCLS broth microdilution; type: cell-based, Streptococcus pneumoniae; conditions: E = S. pneumoniae ATCC 49619
From the text: as §1, §2

SMILES	Minimum Inhibitory Concentration (MIC) [1]	Minimum Inhibitory Concentration (MIC) [2]	Minimum Inhibitory Concentration (MIC) [3]	Minimum Inhibitory Concentration (MIC) [4]	Minimum Inhibitory Concentration (MIC) [5]	Minimum Inhibitory Concentration (MIC) [6]	Minimum Inhibitory Concentration (MIC) [7]	Minimum Inhibitory Concentration (MIC) [8]
Cn1cc(NC(=O)c2cc3ccccc3cn2)cc1C(=O)Nc1ccc(C(=O)Nc2cn(C)c(C(=O)NCCN3CCC(O)C3)n2)cc1 (racemic) [Compound A-71]	>32 µg/mL	+++ (MIC ≦ 4 μg/mL)	+++ (MIC ≦ 4 μg/mL)	+++ (MIC ≦ 4 μg/mL)	+++ (MIC ≦ 4 μg/mL)	+++ (MIC ≦ 4 μg/mL)	+++ (MIC ≦ 4 μg/mL)	+++ (MIC ≦ 4 μg/mL)
Cn1cc(NC(=O)c2cc3ccccc3cn2)cc1C(=O)Nc1ccc(C(=O)Nc2cn(C)c(C(=O)NCCN3CCN(CCOC(=O)CN)CC3)n2)cc1 [Compound A-62]	>32 µg/mL	+++ (MIC ≦ 4 μg/mL)	+++ (MIC ≦ 4 μg/mL)	+++ (MIC ≦ 4 μg/mL)	+++ (MIC ≦ 4 μg/mL)	>32 µg/mL	+++ (MIC ≦ 4 μg/mL)	+++ (MIC ≦ 4 μg/mL)
Cn1cc(NC(=O)c2cc3ccccc3cn2)cc1C(=O)Nc1ccc(C(=O)Nc2cn(C)c(C(=O)NCCN3CCC(OC(=O)CNS(=O)(=O)O)CC3)n2)cc1 [Compound A-68]	>32 µg/mL	+++ (MIC ≦ 4 μg/mL)	+++ (MIC ≦ 4 μg/mL)	+++ (MIC ≦ 4 μg/mL)	+++ (MIC ≦ 4 μg/mL)	>32 µg/mL	>32 µg/mL	+ (12 ≦ MIC ≦ 32 μg/mL)
CC(S)CN1CCN(CCNC(=O)c2nc(NC(=O)c3ccc(NC(=O)c4cc(NC(=O)c5cc6ccccc6cn5)cn4C)cc3)cn2C)CC1 (stereo not shown) [Compound A-77]	>32 µg/mL	+++ (MIC ≦ 4 μg/mL)	+++ (MIC ≦ 4 μg/mL)	+++ (MIC ≦ 4 μg/mL)	++ (4 < MIC < 12 μg/mL)	>32 µg/mL	+ (12 ≦ MIC ≦ 32 μg/mL)	+++ (MIC ≦ 4 μg/mL)
Cn1cc(NC(=O)c2cc3ccccc3cn2)cc1C(=O)Nc1ccc(C(=O)Nc2cn(C)c(C(=O)NCCN3CCSCC3)n2)cc1 [Compound A-18]	>32 µg/mL	+++ (MIC ≦ 4 μg/mL)	+++ (MIC ≦ 4 μg/mL)	+++ (MIC ≦ 4 μg/mL)	+++ (MIC ≦ 4 μg/mL)	>32 µg/mL	+++ (MIC ≦ 4 μg/mL)	+++ (MIC ≦ 4 μg/mL)
Cn1cc(NC(=O)c2cc3ccccc3cn2)cc1C(=O)Nc1ccc(C(=O)Nc2cn(C)c(C(=O)NCCN3CCN(C(=O)OC(C)(C)C)CC3)n2)cc1 [Compound A-55]	>32 µg/mL	+++ (MIC ≦ 4 μg/mL)	+++ (MIC ≦ 4 μg/mL)	+++ (MIC ≦ 4 μg/mL)	+++ (MIC ≦ 4 μg/mL)	>32 µg/mL	+ (12 ≦ MIC ≦ 32 μg/mL)	+++ (MIC ≦ 4 μg/mL)
Cn1cc(NC(=O)c2cc3ccccc3cn2)cc1C(=O)Nc1ccc(C(=O)Nc2cn(C)c(C(=O)NCCN(CCO)CCO)n2)cc1 [Compound A-54]	>32 µg/mL	+++ (MIC ≦ 4 μg/mL)	+++ (MIC ≦ 4 μg/mL)	+++ (MIC ≦ 4 μg/mL)	+++ (MIC ≦ 4 μg/mL)	>32 µg/mL	>32 µg/mL	+++ (MIC ≦ 4 μg/mL)
Cn1cc(NC(=O)c2sc3ccccc3c2Cl)cc1C(=O)Nc1ccc(C(=O)Nc2cn(C)c(C(=O)NCCN3CCC(O)CC3)n2)cc1 [Compound A-3]	>32 µg/mL	+++ (MIC ≦ 4 μg/mL)	+++ (MIC ≦ 4 μg/mL)	+++ (MIC ≦ 4 μg/mL)	+++ (MIC ≦ 4 μg/mL)	>32 µg/mL	++ (4 < MIC < 12 μg/mL)	+++ (MIC ≦ 4 μg/mL)
Cn1cc(NC(=O)c2cc3ccccc3cn2)cc1C(=O)Nc1ccc(C(=O)Nc2cn(C)c(C(=O)NCCN3CCC(F)(F)CC3)n2)cc1 [Compound A-11]	>32 µg/mL	+++ (MIC ≦ 4 μg/mL)	+++ (MIC ≦ 4 μg/mL)	+++ (MIC ≦ 4 μg/mL)	+++ (MIC ≦ 4 μg/mL)	>32 µg/mL	+++ (MIC ≦ 4 μg/mL)	+++ (MIC ≦ 4 μg/mL)
CCC(O)CN1CCN(CCNC(=O)c2nc(NC(=O)c3ccc(NC(=O)c4cc(NC(=O)c5cc6ccccc6cn5)cn4C)cc3)cn2C)CC1 (stereo not shown) [Compound A-78]	>32 µg/mL	+++ (MIC ≦ 4 μg/mL)	+++ (MIC ≦ 4 μg/mL)	+++ (MIC ≦ 4 μg/mL)	+++ (MIC ≦ 4 μg/mL)	+ (12 ≦ MIC ≦ 32 μg/mL)	+++ (MIC ≦ 4 μg/mL)	+++ (MIC ≦ 4 μg/mL)
Cn1cc(NC(=O)c2cc3ccccc3cn2)cc1C(=O)Nc1ccc(C(=O)Nc2cn(C)c(C(=O)NCCN3CCN(S(C)(=O)=O)CC3)n2)cc1 [Compound A-56]	>32 µg/mL	+++ (MIC ≦ 4 μg/mL)	+++ (MIC ≦ 4 μg/mL)	+++ (MIC ≦ 4 μg/mL)	+++ (MIC ≦ 4 μg/mL)	>32 µg/mL	+++ (MIC ≦ 4 μg/mL)	+++ (MIC ≦ 4 μg/mL)
Cn1cc(NC(=O)c2cc3ccccc3cn2)cc1C(=O)Nc1ccc(C(=O)Nc2cn(C)c(C(=O)NCCN3CCNCC3)n2)cc1 [Compound A-47]	+ (12 ≦ MIC ≦ 32 μg/mL)	+++ (MIC ≦ 4 μg/mL)	+++ (MIC ≦ 4 μg/mL)	+++ (MIC ≦ 4 μg/mL)	+++ (MIC ≦ 4 μg/mL)	>32 µg/mL	+++ (MIC ≦ 4 μg/mL)	+++ (MIC ≦ 4 μg/mL)
CC(C)C(CO)NCCNC(=O)c1nc(NC(=O)c2ccc(NC(=O)c3cc(NC(=O)c4cc5ccccc5cn4)cn3C)cc2)cn1C (stereo not shown) [Compound A-46]	>32 µg/mL	+++ (MIC ≦ 4 μg/mL)	+++ (MIC ≦ 4 μg/mL)	+++ (MIC ≦ 4 μg/mL)	+++ (MIC ≦ 4 μg/mL)	>32 µg/mL	++ (4 < MIC < 12 μg/mL)	+++ (MIC ≦ 4 μg/mL)
Cn1cc(NC(=O)c2cc3ccccc3cn2)cc1C(=O)Nc1ccc(C(=O)Nc2cn(C)c(C(=O)NCCN3CCN(CCOC(=O)CNC(=O)OC(C)(C)C)CC3)n2)cc1 [Compound A-61]	>32 µg/mL	+++ (MIC ≦ 4 μg/mL)	+++ (MIC ≦ 4 μg/mL)	+++ (MIC ≦ 4 μg/mL)	+++ (MIC ≦ 4 μg/mL)	>32 µg/mL	+++ (MIC ≦ 4 μg/mL)	+++ (MIC ≦ 4 μg/mL)
